# US8378117B2 (priority 2005, dated 2013)
# Where two headings read alike, the source gives them in different places.
# Columns and labels:
# CB2 receptor = target: T1, CB2 receptor (Homo sapiens, UniProt P34972); assay: Binding assay for CB2 agonists or inverse agonists (SK-N-MC membranes, [3H]-CP-55,940)
# T1 construct: expressed in transfected cells
# Method in brief: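 Membranes from SK-N-MC cells stably expressing human CB2 were incubated with radioligand and test compounds for 90 min at 30 °C in Tris-HCl buffer, pH 7.5, with MgCl2, EDTA and fatty-acid-free BSA. Filter-bound radioactivity was counted; IC50 was derived by linear regression of percent inhibition.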
# CB1 receptor = target: T2, CB1 receptor (Homo sapiens, UniProt P21554); assay: Binding assay for CB1 agonists or inverse agonists (SK-N-MC membranes, [3H]-CP-55,940); conditions: for inhibition at 1 µM: read-out: CB1 receptor binding percent inhibition, test concentration 1 μM (footnote 1); for inhibition at 0.2 µM: read-out: CB1 receptor binding percent inhibition, test concentration 0.2 μM (footnote 2)
# T2 construct: expressed in transfected cells
# Method in brief: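 Membranes from SK-N-MC cells stably expressing human CB1 incubated with compound and [3H]-CP-55,940 ([…]) for 90 min at 30° C in Tris-HCl pH 7.5, MgCl2, EDTA, fatty-acid-free BSA. Non-specific binding defined with 10 uM WIN 55,212; filtration, scintillation count; IC50 by linear regression.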
# T1 sequence (P34972 whole entry): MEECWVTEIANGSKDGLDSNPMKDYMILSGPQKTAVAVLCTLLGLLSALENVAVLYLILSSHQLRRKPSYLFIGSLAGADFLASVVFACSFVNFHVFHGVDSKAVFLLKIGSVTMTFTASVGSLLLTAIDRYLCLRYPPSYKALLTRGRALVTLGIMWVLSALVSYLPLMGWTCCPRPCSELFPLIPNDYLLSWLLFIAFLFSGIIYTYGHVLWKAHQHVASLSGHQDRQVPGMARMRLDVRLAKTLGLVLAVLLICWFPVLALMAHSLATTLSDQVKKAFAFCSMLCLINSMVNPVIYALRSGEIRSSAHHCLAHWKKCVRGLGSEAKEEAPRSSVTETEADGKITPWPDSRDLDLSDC
# T2 sequence (P21554 whole entry): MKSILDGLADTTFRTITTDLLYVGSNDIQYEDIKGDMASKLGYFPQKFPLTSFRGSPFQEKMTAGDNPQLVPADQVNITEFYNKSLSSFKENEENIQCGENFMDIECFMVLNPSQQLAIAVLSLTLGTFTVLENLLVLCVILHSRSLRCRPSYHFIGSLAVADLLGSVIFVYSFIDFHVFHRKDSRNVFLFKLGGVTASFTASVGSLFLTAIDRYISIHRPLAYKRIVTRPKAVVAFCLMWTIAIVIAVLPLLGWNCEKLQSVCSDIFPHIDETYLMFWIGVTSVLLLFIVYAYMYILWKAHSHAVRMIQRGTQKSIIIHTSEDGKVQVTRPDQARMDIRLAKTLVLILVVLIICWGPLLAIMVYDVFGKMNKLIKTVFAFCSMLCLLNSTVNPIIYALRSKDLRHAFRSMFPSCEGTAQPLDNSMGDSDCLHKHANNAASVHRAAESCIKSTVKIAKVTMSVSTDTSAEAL
SMILES,CB2 receptor binding percent inhibition (CB2 receptor; test concentration not stated) [%],inhibition at 1 µM (CB1 receptor) [%],further results
"COC(=O)[C@@H](Cc1ccc(O)cc1)NC(=O)c1nn(-c2ccc(F)cc2F)c2c1CCCCC2Cc1ccc(F)cc1 (stereo partly drawn) [Cpd 98, (2R)-2-{[1-(2,4-difluoro-phenyl)-8-(4-fluoro-benzyl)-1,4,5,6,7,8-hexahydro-cycloheptapyrazole-3-carbonyl]-amino}-3-(4-hydroxy-phenyl)-propionic acid methyl ester]",43,51,–
"O=C(N[C@@H]1c2ccccc2C[C@@H]1O)c1nn(-c2ccc(F)cc2F)c2c1CCCCC2Cc1ccc(F)cc1 (stereo partly drawn) [Cpd 119, 1-(2,4-difluoro-phenyl)-8-(4-fluoro-benzyl)-1,4,5,6,7,8-hexahydro-cycloheptapyrazole-3-carboxylic acid [(1R,2S)-2-hydroxy-indan-1-yl]-amide]",38,39,–
"O=C(NC1CCCC1)c1nn(C2CCCCC2)c2c1CCCCC2Cc1cccc(F)c1 (centres unmarked) [Cpd 52, 1-cyclohexyl-8-(3-fluoro-benzyl)-1,4,5,6,7,8-hexahydro-cycloheptapyrazole-3-carboxylic acid cyclopentylamide]",21,26,–
"O=C(NC1C2CC3CC(C2)CC1C3)c1nn(C2CCCCC2)c2c1CCCCC2Cc1ccc(Cl)cc1 (centres unmarked) [Cpd 16, 8-(4-chloro-benzyl)-1-cyclohexyl-1,4,5,6,7,8-hexahydro-cycloheptapyrazole-3-carboxylic acid adamantan-2-ylamide]",68,21,–
"O=C(NN1CCCCC1)c1nn(C2CCCCC2)c2c1CCCCC2Cc1cccc(F)c1 (centres unmarked) [Cpd 50, 1-cyclohexyl-8-(3-fluoro-benzyl)-1,4,5,6,7,8-hexahydro-cycloheptapyrazole-3-carboxylic acid piperidin-1-ylamide]",31,32,–
"O=C(NN1CCCCC1)c1nn(Cc2ccccc2)c2c1CCCCC2c1ccccc1 (centres unmarked) [Cpd 68, 1-benzyl-8-phenyl-1,4,5,6,7,8-hexahydro-cycloheptapyrazole-3-carboxylic acid piperidin-1-ylamide]",–,–,"inhibition at 0.25 µM (CB2 receptor; read-out: CB2 receptor binding percent inhibition, test concentration 0.25 μM (footnote 8)): 27%; inhibition at 0.25 µM (CB1 receptor; read-out: CB1 receptor binding percent inhibition, test concentration 0.25 μM (footnote 8)): 0%"
"O=C(NN1CCCCC1)c1n[nH]c2c1CCCC/C2=C\c1ccc(Cl)cc1 [Cpd 144, (8E)-8-(4-chloro-benzylidene)-1,4,5,6,7,8-hexahydro-cycloheptapyrazole-3-carboxylic acid piperidin-1-ylamide]",–,–,"CB2 receptor binding percent inhibition (CB2 receptor; test concentration 0.2 μM (footnote 2)): ^(2)90%; IC50 (CB1 receptor; Cannabinoid CB1 Receptor Binding IC50, calculated by linear regression from percent inhibition at various test concentrations): 0.03 µM; inhibition at 0.2 µM (CB1 receptor): 69%"
"C[C@H](NC(=O)c1nn(-c2ccccc2Cl)c2c1CCCC/C2=C\c1ccc(Cl)cc1)C1CCCCC1 [Cpd 192, (8E)-8-(4-chloro-benzylidene)-1-(2-chloro-phenyl)-1,4,5,6,7,8-hexahydro-cycloheptapyrazole-3-carboxylic acid [(1S)-1-cyclohexyl-ethyl]-amide]",–,–,"inhibition at 0.2 µM (CB2 receptor; read-out: CB2 receptor binding percent inhibition, test concentration 0.2 μM (footnote 2)): 7%; inhibition at 0.2 µM (CB1 receptor): 45%"
"O=C(NC12CC3CC(CC(C3)C1)C2)c1nn(C2CCCCC2)c2c1CCCCC2Cc1ccccc1Cl (centres unmarked) [Cpd 21, 8-(2-chloro-benzyl)-1-cyclohexyl-1,4,5,6,7,8-hexahydro-cycloheptapyrazole-3-carboxylic acid adamantan-1-ylamide]",26,32,–
"C[C@H](NS(=O)(=O)/C=C/c1n[nH]c2c1CCCCC2Cc1cccc(Cl)c1)c1ccccc1 (stereo partly drawn) [Cpd 160, (2E)-2-[8-(3-chloro-benzyl)-1,4,5,6,7,8-hexahydro-cycloheptapyrazol-3-yl]-ethenesulfonic acid [(1S)-1-phenyl-ethyl]-amide]",–,–,"inhibition at 0.2 µM (CB2 receptor; test concentration 0.2 μM (footnote 2), read-out: CB2 receptor binding percent inhibition): 75%; inhibition at 0.2 µM (CB1 receptor): 2%"
"O=C(NN1CCCCC1)c1nn(-c2ccc(Cl)cc2Cl)c2c1CCCCC2Cc1ccc(Cl)cc1 (centres unmarked) [Cpd 27, 8-(4-chloro-benzyl)-1-(2,4-dichloro-phenyl)-1,4,5,6,7,8-hexahydro-cycloheptapyrazole-3-carboxylic acid piperidin-1-ylamide]",0,0,–
